Results: PMC10609924, “Cytotoxic Activity of Wild Plant and Callus Extracts of Ageratina pichinchensis and 2,3-Dihydrobenzofuran Isolated from a Callus Culture” (Pharmaceuticals, 2023)
Converted amounts (≈) assume the structure as drawn.

What was measured:
[1] = system: HepG2 cells (human hepatoma); experiment: Cytotoxic assay (CellTiter 96 AQueous One Solution), HepG2
Experimental: (§1) We evaluated the cytotoxic activity of the ethyl acetate and methanol extracts obtained from different parts of the wild plant A. pichinchensis, including its leaves, stems, and callus cultures. The extracts were evaluated using concentrations of 200, 100, 50, 25, and 12.5 µg/mL against various cell lines (Table 1), including human prostate carcinoma (PC-3), cervical cancer (HeLa), hepatocellular carcinoma (Huh-7), human hepatoma (HepG2) and breast tumor cells (MCF-7). These cell lines represent cell types that, unfortunately, have high incidence and mortality rates globally.
(§2) PC-3 (prostate), HeLa (cervical), MCF-7 (breast), and Huh-7 and HepG2 (hepatocellular) human cancer cell lines were purchased from ATCC (Manassas, VA, USA) (Figure 5). We also included an immortalized human epidermal keratinocyte line (HaCat) as a control of non-cancerous cells. […]
(§3) Cells (4 × 10^3 cells/well) were seeded in 96-well plates. […] Cell viability was determined by absorbance at 450 nm using an automated ELISA reader (Promega, Madison, WI, USA). […] Data were analyzed using the Prism 8.0 statistical program (Graphpad Software Inc., La Jolla, CA, USA) and the half-maximal inhibitory concentrations (IC50) were determined by regression analysis.

[2] = system: PC-3 cells (human prostate carcinoma); experiment: Cytotoxic assay (CellTiter 96 AQueous One Solution), PC-3
Experimental: as §1, §2, §3

[3] = system: MCF-7 cells (breast tumor cells); experiment: Cytotoxic assay (CellTiter 96 AQueous One Solution), MCF-7
Experimental: as §1, §2, §3

[4] = system: HeLa cells (cervical cancer); experiment: Cytotoxic assay (CellTiter 96 AQueous One Solution), HeLa
Experimental: as §1
PC-3 (prostate), HeLa (cervical), MCF-7 (breast), and Huh-7 and HepG2 (hepatocellular) human cancer cell lines were purchased from ATCC (Manassas, VA, USA) (Figure 5). We also included an immortalized human epidermal keratinocyte line (HaCat) as a control of non-cancerous cells. PC-3 was grown in RPMI-1640 medium (Sigma Aldrich, St. Louis, MO, USA), while Huh-7, HepG2, HeLa, and HaCat were grown in DMEM medium (Invitrogen, Thermo Fisher Scientific, Waltham, MA, USA) supplemented with 10% SFB and 2 mM glutamine. All cultures were incubated at 37 °C in 5% CO2.
Cells (4 × 10^3 cells/well) were seeded in 96-well plates. The cells were treated with the investigated samples (at 200, 100, 50, 25, and 12.5 µg/mL) and incubated at 37 °C in 5% CO2 for 48 h. Paclitaxel was used as a positive control. For determining the number of viable cells in proliferation we used a CellTiter 96® AQueous One Solution Cell Proliferation Assay kit (Promega, Madison, WI, USA), following the manufacturer’s instructions. Cell viability was determined by absorbance at 450 nm using an automated ELISA reader (Promega, Madison, WI, USA). Stock solutions of all compounds were prepared in DMSO at a maximum concentration of 0.5%. The experiments were conducted in triplicate in three independent experiments. Data were analyzed using the Prism 8.0 statistical program (Graphpad Software Inc., La Jolla, CA, USA) and the half-maximal inhibitory concentrations (IC50) were determined by regression analysis.

[5] = Cytotoxic assay (CellTiter 96 AQueous One Solution), HaCat selectivity control; conditions: human
Experimental: as §1, §2, §3

[6] = system: PC-3, HeLa, Huh-7, HepG2, MCF-7 and HaCat cell lines; experiment: Cytotoxic assay, statements over the whole cell line panel; conditions: PTX-treated cell lines
Experimental: as §1, §2, §3

[7] = system: Huh-7 cells (hepatocellular carcinoma); experiment: Cytotoxic assay (CellTiter 96 AQueous One Solution), Huh-7
Experimental: as §1, §2, §3

[8] = system: HaCat cells (immortalized human epidermal keratinocytes); experiment: Cytotoxic assay (CellTiter 96 AQueous One Solution), HaCat selectivity control
Experimental: as §1, §2, §3

| Molecule | IC50 ([1]; Homo sapiens, HepG2, 48 h, read-out: Cytotoxic activity (IC50), HepG2) | IC50 ([2]; Homo sapiens, PC-3, 48 h, read-out: Cytotoxic activity (IC50), PC-3) | IC50 ([3]; Homo sapiens, MCF7, 48 h, read-out: Cytotoxic activity (IC50), MCF-7) | IC50 ([4]; Homo sapiens, HeLa, 48 h, read-out: Cytotoxic activity (IC50), HeLa) | IC50 at 48 h [5] | IC50 values range in words [6] | IC50 ([7]; Homo sapiens, Huh-7, 48 h, read-out: Cytotoxic activity (IC50), Huh-7) | Cytotoxic activity (IC50), HepG2 [1] | Cytotoxic activity (IC50), PC-3 [2] | Cytotoxic activity (IC50), MCF-7 [3] | Cytotoxic activity (IC50), HeLa [4] | Cytotoxic effect in words, HeLa [4] | Cytotoxic activity (IC50), HaCat [8] | Cytotoxic activity (IC50), Huh-7 [7] |
| --- | --- | --- | --- | --- | --- | --- | --- | --- | --- | --- | --- | --- | --- | --- |
| CC(=O)O[C@H]1C(=O)[C@@]2(C)[C@H]([C@H](OC(=O)c3ccccc3)[C@]3(O)C[C@H](OC(=O)[C@H](O)[C@@H](NC(=O)c4ccccc4)c4ccccc4)C(C)=C1C3(C)C)[C@]1(OC(C)=O)CO[C@@H]1C[C@@H]2O [Paclitaxel, paclitaxel] | 8.57 ng/mL (≈ 0.01 µM) | 0.013 ± 0.00196 µg/mL (≈ 0.0152 µM) | 0.018 ± 0.0035 µg/mL (≈ 0.0211 µM) | 0.017 ± 0.00103 µg/mL (≈ 0.0199 µM) | 0.097 ± 0.0128 µg/mL (≈ 0.114 µM) | nanomolar (nM) range | 0.021 ± 0.00273 µg/mL (≈ 0.0246 µM) | – | – | – | – | – | – | – |
| (2S,3R)-5-acetyl-7,3-dihydroxy-2-(1-isopropenyl)-2,3-dihydrobenzofuran [compound 7] | – | – | – | – | – | – | – | 74.62 ± 2.02 µg/mL | 80.36 ± 4.63 µg/mL | 107.20 ± 1.52 µg/mL | 23.86 ± 2.5 µg/mL | remarkable effect on the inhibition of HeLa cells | 123.50 ± 15.17 µg/mL | 79.98 ± 3.78 µg/mL |
